# Measured values as given in ChEMBL document CHEMBL1629667, “Activities of dalbavancin against a worldwide collection of 81,673 gram-positive bacterial isolates” (2009).
# Legend:
# Assay type in all cases: functional
# Enterococcus faecalis [1] = test: Antimicrobial activity against Enterococcus faecalis VanA assessed as growth inhibition at 1 ug/ml by broth microdilution method
# Enterococcus faecium [2] = test: Antimicrobial activity against Enterococcus faecium VanB assessed as growth inhibition at 0.5 ug/ml by broth microdilution method
# Enterococcus faecalis [3] = test: Antimicrobial activity against Enterococcus faecalis VanB assessed as growth inhibition at 2 ug/ml by broth microdilution method
# Enterococcus faecium [4] = test: Antimicrobial activity against Enterococcus faecium VanA assessed as growth inhibition at 2 ug/ml by broth microdilution method
# Enterococcus faecalis [5] = test: Antimicrobial activity against Enterococcus faecalis VanB assessed as growth inhibition at =<[…] ug/ml by broth microdilution method
# Enterococcus faecalis [6] = test: Antimicrobial activity against Enterococcus faecalis VanB assessed as growth inhibition at 4 ug/ml by broth microdilution method
# Enterococcus faecium [7] = test: Antimicrobial activity against Enterococcus faecium VanA assessed as growth inhibition at =<[…] ug/ml by broth microdilution method
# Enterococcus faecium [8] = test: Antimicrobial activity against Enterococcus faecium VanB assessed as growth inhibition at 1 ug/ml by broth microdilution method
# Enterococcus faecalis [9] = test: Antimicrobial activity against Enterococcus faecalis VanB assessed as growth inhibition at 1 ug/ml by broth microdilution method
# Enterococcus faecium [10] = test: Antimicrobial activity against Enterococcus faecium VanB assessed as growth inhibition at 2 ug/ml by broth microdilution method
# Staphylococcus aureus [11] = test: Antimicrobial activity against Oxacillin-resistant Staphylococcus aureus assessed as percent susceptible isolate by broth microdilution method
# Staphylococcus [12] = test: Antimicrobial activity against Oxacillin-susceptible coagulase-negative Staphylococcus assessed as percent resistant isolate by broth microdilution method
# Staphylococcus aureus [13] = test: Antimicrobial activity against Oxacillin-susceptible Staphylococcus aureus by broth microdilution method
# Staphylococcus [14] = test: Antimicrobial activity against Oxacillin-resistant coagulase-negative Staphylococcus assessed as percent susceptible isolate by broth microdilution method
# [15] = tested on: Streptococcus sp. 'group B'; test: Antimicrobial activity against Beta-hemolytic Streptococcus sp. 'group B' assessed as growth inhibition at 0.25 ug/ml by broth microdilution method
# Streptococcus = test: Antimicrobial activity against viridans group Streptococcus assessed as percent susceptible isolate by broth microdilution method
smiles,measurement,setting,value
CN[C@H](CC(C)C)C(=O)N[C@H]1C(=O)N[C@@H](CC(N)=O)C(=O)N[C@H]2C(=O)N[C@H]3C(=O)N[C@H](C(=O)N[C@H](C(=O)O)c4cc(O)cc(O)c4-c4cc3ccc4O)[C@H](O)c3ccc(c(Cl)c3)Oc3cc2cc(c3O[C@@H]2O[C@H](CO)[C@@H](O)[C@H](O)[C@H]2O[C@H]2C[C@](C)(N)[C@H](O)[C@H](C)O2)Oc2ccc(cc2Cl)[C@H]1O [VANCOMYCIN],inhibition at 1 µg/mL,Enterococcus faecalis [1],4.3%
same,inhibition at 0.5 µg/mL,Enterococcus faecium [2],85.1%
same,inhibition at 2 µg/mL,Enterococcus faecalis [3],85.7%
same,inhibition at 2 µg/mL,Enterococcus faecium [4],18.3%
same,inhibition (INH),Enterococcus faecalis [5],9.5%
same,inhibition at 4 µg/mL,Enterococcus faecalis [6],91.7%
same,inhibition (INH),Enterococcus faecium [7],0.1%
same,inhibition at 1 µg/mL,Enterococcus faecium [8],90.3%
same,inhibition at 1 µg/mL,Enterococcus faecalis [9],78.6%
same,inhibition at 2 µg/mL,Enterococcus faecium [10],94%
same,Activity,Staphylococcus aureus [11],>99.9%
same,Activity,Staphylococcus [12],0%
same,MIC50,Staphylococcus aureus [13],1 µg/mL
same,MIC90,Staphylococcus aureus [13],1 µg/mL
same,Activity,Staphylococcus [14],>99.9%
same,inhibition at 0.25 µg/mL,[15],100%
same,Activity,Streptococcus,99.9%
